Results taken from patent publication US20260224528A1, “PSILOCIN FORMULATIONS” (Eleusis Therapeutics US, Inc., priority 2023, published 2026).

Experiment: Stability of DS in aqueous solution
Format: physicochemical
Details: pH range of 4 to 9; rapid degradation and discoloration
Method: The goal of this study was to develop an isotonic stable formulation with the psilocin benzoate Drug Substance (DS) concentration ranging from 0.5 to 3.0 mg/mL (mg free base psilocin) as a bulk sterile solution, having a pH in the range of 4 to 9 in a single use glass vial suitable for IV injection. […] This led to the development of a formulation of psilocin benzoate containing antioxidants, buffers, pH adjustment.

CN(C)CCc1c[nH]c2cccc(O)c12.O=C(O)c1ccccc1 [DS, psilocin benzoate]
Stability in aqueous solution: short stability in aqueous solution
